Experimental data: US9737582B2, “Method for improving memory of a subject using a composition comprising Cistanche and Ginkgo extracts” (Access Business Group International LLC, priority 2014, dated 2017)

Experiments:
Format in all cases: cell-based, murine
hippocampal cultures [1] = experiment: Chronic treatment of hippocampal cultures on MEA neurochips, spontaneous network activity; settings: chronic treatment 4-28 days in vitro; 30 μg/ml Cistanche, 300 nM Donepezil
From the text: Microelectrode array (MEA) neurochips were utilized to analyze various examples. Specifically, use of MEA neurochips enabled stimulation and recording of bioelectricity with high spatial and temporal resolution, to glean neuroactivity of the Cistanche and Ginkgo extracts, alone and in combination, and with neuronal growth factors.
MEA neurochips are available from NeuroProof GmbH of Rostock, Germany. The electrophysiological properties of compounds can be evaluated using their ability for induction of activity changes in neuronal networks grown on MEA neurochips. Routine monitoring of internal dynamics of mammalian neuronal networks is possible. […]
FIG. 8 illustrates examples of the study to assess chronic effects of Cistanche tubulosa extract on maturation of a neuronal network. […] At 28 days after repeated dose chronic treatment, spontaneous activity was measured, followed by recording of activity to acute NGF concentration-response curve. […]
Multichannel recording delivered single neuron spike data and spike identification and separation were accomplished with a template-matching algorithm in real time, to allow the extracellular recording of action potentials from 256 neurons simultaneously. The action potentials or “spikes” were recorded in spike trains and clustered in bursts, which can be quantitatively described via direct spike train analysis. […]

hippocampal cultures [2] = experiment: Acute NGF concentration-response on chronically treated hippocampal cultures, MEA neurochips; settings: acute mNGF 3 ng/ml to 1 μg/ml
Description: FIG. 8 illustrates examples of the study to assess chronic effects of Cistanche tubulosa extract on maturation of a neuronal network. Hippocampal cultures on MEA neurochips were treated with 30 μg/ml Cistanche, 300 nM Donepezil, or a dimethyl sulfoxide (“DMSO”) vehicle control. At 28 days after repeated dose chronic treatment, spontaneous activity was measured, followed by recording of activity to acute NGF concentration-response curve.
FIG. 19A is a first portion of a heat map and FIG. 19B is a second portion of the heat map. The heat map illustrates concentration dependent effects of acute mouse nerve growth factor (“mNGF”) on network activity of chronically treated hippocampal cultures with the mixtures or components described above for FIG. 18.
The heat map illustrates significant changes on the 60 most representative parameters for each mNGF concentration, from 3 ng/ml to 1 μg/ml. The color code changes in activity parameters according to the percent changes (100:no change), with yellow/red=an increase and green/blue=a decrease.

[3] = tested on: hippocampal network morphology; experiment: Immuno-histochemical analysis of recorded cultures, semi-automatic quantitative image analysis; settings: chronic 4-28 days in vitro; 30 μg/ml Cistanche, 300 nM Donepezil
From the text: FIG. 5A is an example image associated with semi-automatic quantification of neurons/image, neurites/image, synapses/image, and synapse/neurite ratio. The image depicts color-merge of synapse (green), neurites (red), nuclei (blue), bar=50 μm.
FIG. 5B is an example image corresponding to synapse channel: color-inverted and analyzed for synapse particles (red labeled after automatic threshold, particle separation and size filter).
FIG. 9 illustrates examples of the study directed at immuno-histochemical analysis. Recorded cultures are further analyzed by immunocytochemistry, fluorescence microscopy and semi-automatic quantitative image analysis. Images are quantified per image for: cell number, neuronal number, neurite number, synapse number, % neurons, neurites per neuron, and synapses per neuron. […]
Recorded cultures were further analyzed by immunocytochemistry, fluorescent microscopy and quantitative image analysis for morphological findings. Semi-automatic quantification (mean±SEM, student's t-test: *p≦0.05; n=3 with 10-20 images each.)
FIG. 21 are images associated with semi-automatic quantification of total cells/field, percentage of neurons, neuritic density, and synaptic number/field. […] The rightmost images correspond to synapse channel: color inverted and analyzed for synapse particles.

COc1cc2c(cc1OC)C(=O)C(CC1CCN(Cc3ccccc3)CC1)C2 (stereo not shown) [Donepezil]
spontaneous network activity (hippocampal cultures [1]): enhanced the spontaneous network activity
effect of chronic treatment on the acute NGF response (hippocampal cultures [2]; chronic 4-28 days in vitro, 30 μg/ml Cistanche, 300 nM Donepezil, mixture at 10 and 30 μg/ml): compensated the inhibitory acute NGF response
global synapse number [3]: increase

B1: NGF: mouse nerve growth factor applied acutely to cultures (protein, UniProt P01139 122-241, looked up)
Beta-nerve growth factor: SSTHPVFHMGEFSVCDSVSVWVGDKTTATDIKGKEVTVLAEVNINNSVFRQYFFETKCRASNPVESGCRGIDSKHWNSYCTTTHTFVKALTTDEKQAAWRFIRIDTACVCVLSRKATRRG
modifications: Beta-nerve growth factor
notes: mouse nerve growth factor applied acutely to cultures
effect of acute NGF alone on general activity (hippocampal cultures [2]; vehicle-treated cultures): inhibition of general activity
